The results in this text go back to publication PMC9180621, “Preparation of Novel Pyrazolo[4,3-e]tetrazolo[1,5-b][1,2,4]triazine Sulfonamides and Their Experimental and Computational Biological Studies” (International Journal of Molecular Sciences, 2022).

For assay [1], the system named is PC-3 cells. Kind of assay: MTT assay, cell viability. The following applies: Homo sapiens; PC-3, 72 h incubation, MTT, ± SD. The assay is classed as cell-based, human. The protocol:
(§1) A statistical program (Graphpad Prism 7) was used to analyze obtained data (MTT test). The dose–response analysis was performed to estimate the inhibitory concentration (IC50) of the tested compounds. The IC50 value is defined as a concentration of the tested compound that leads to a reduction in cell pool viability by 50% compared to the negative control (accepted as 100%). % cell viability=Absorbance value of treated cells−Absorbance value of blank/Absorbance value of untreated cells−Absorbance value of blank×100%
(§2) To estimate cell viability following 72 h incubation with the tested MM-compounds (MM134, MM136, MM137, and MM139), the MTT test was used according to the PN-EN ISO 10993-5. It is a quantitative method based on the tetrazolium yellow dye MTT [3(4,5-dimethyl-2-thiazolyl)-2,5-diphenyl-2H-tetrazolium bromide], which is converted by living cells to a purple product, formazan, the concentration of which was measured colorimetrically. The MTT assay was performed according to the procedure described by Mosmann with modifications. At a density of approximately 8 × 10^3 cells per 100 µL/well, 96-well plates were seeded. Following the given incubation period in controlled conditions (37 °C; 5% CO2), cells were exposed to different concentrations of tested compounds in DMSO (range 0.05–3 µM) in a volume of 100 µL medium per well. Final solvent concentration of DMSO was < 0.5% v/v. The experimental design included vehicle controls and blanks (wells without cells).
(§3) After 72 h of incubation of cells with tested MM-compounds, 20 µL of MTT tetrazolium salt (5 mg/mL in PBS) was added to each well, and plates were incubated once again in a humidified atmosphere for 3 h (37 °C; 5% CO2). Following the incubation time, the solutions were removed and 100 µL of DMSO was added to dissolve the formazan complexes. Subsequently, a spectrophotometer (microplate reader Power Wave XS BioTek Instruments, Inc., Winooski, VT, USA) reading was performed at 570 nm. The experiments were performed in duplicates.
In general terms: Formazan colour is commonly taken as a measure of viable cells.

The next assay deals with WI-38 cells. The assay can be described thus: MTT assay, cell viability. The assay is classed as cell-based. Conditions: WI-38 normal human fibroblasts, 72 h incubation, ± SD. Here is the method:
as §1, §2, §3

The subject of another assay is L929 cells. Kind of assay: MTT assay, cell viability. The assay is classed as cell-based. Conditions: L929 normal mouse fibroblasts, 72 h incubation, ± SD. The protocol: as §1, §2, §3
For assay [2], the system named is BxPC-3 cells. Kind of assay: MTT assay, cell viability. The assay is classed as cell-based. Conditions: Homo sapiens, BxPC-3, 72 h incubation, ± SD. Here is the method:
as §1, §2, §3

The test system of another assay is HCT-116 cells. The assay can be described thus: MTT assay, cell viability. The assay is classed as cell-based. The following applies: Homo sapiens, HCT-116, 72 h incubation, ± SD. The protocol:
as §1, §2, §3

Assay [3] relates to BxPC-3 cells. The assay can be described thus: MitoTracker Red, mitochondria membrane potential. The assay is classed as cell-based, human. The protocol:
(§4) The fitness of the mitochondria and changes in MMP were assessed using MitoTracker Red. Data for experimental groups were presented as mean percentage of control group fluorescence intensity ± SD value (Figure 11, Table 2). Mitotracker Red is deposited in the mitochondrial matrix in response to changes in the inner transmembrane potential of the mitochondria. The intensity of fluorescence reflects the fitness of the mitochondria and alters with changes in MMP [91]. BxPC-3 and PC-3 cells were seeded at appropriate density on a 96-well plates (Table 9). […] After appropriate incubation time, cells were incubated with MitoTracker Red (0.1 µM/200 µL PBS/well) for 40 min. Afterward, MitoTracker Red solution was removed from the wells and PBS (200 µL/well) was added. Fluorescence was read at an […] of 581/644 nm using the SpectraMax® i3x Multi-Mode Detection Platform.

The test system of assay [4] is PC-3 cells. Kind of assay: MitoTracker Red, mitochondria membrane potential. The assay is classed as cell-based, human. Here is the method: as §4
Assay [5] relates to BxPC-3 cells. Kind of assay: Dual acridine orange/ethidium bromide (AO/EB) fluorescent staining, apoptosis. The assay is classed as cell-based, human. The following applies: BxPC-3, IC50 concentration, 24 h incubation. The protocol:
(§5) Data are presented as mean percentage of apoptotic cells (early and late apoptotic) ± SD values. The differences between the experimental samples and vehicle control were evaluated by the ANOVA test followed by Tukey’s test (p < 0.05). Experiments were performed in triplicate. For flow cytometry analysis with Annexin V-FITC staining, the approximate number of analyzed cells was (N = 1 × 10^4), contrasting with the dual acridine orange/ethidium bromide (AO/EB) fluorescent staining (N = 200). Acridine orange/ethidium bromide (AO/EB) staining is used to detect nuclear alterations and the development of apoptotic bodies, which are both indicative of apoptosis. Acridine orange penetrates into living cells, emitting green fluorescence after intercalation into DNA. The second dye, ethidium bromide, emits red fluorescence in cells with an altered cell membrane. The cells are divided into three categories as follows: living cells (green nucleus with red orange cytoplasm); apoptotic (green irregularly nuclei with chromatin condensation or fragmentation); and necrotic cells (uniformly orange-stained cell nuclei). Programmed cell death is measured by counting the number of cells that undergo apoptosis under a fluorescent microscope. BxPC-3 and PC-3 cells were seeded at an appropriate density on 12-well plates (Table 9). […] Following the incubation period, cells were incubated with fluorochromes (AO/EB: 100 µM; 1:1, v/v) for 5 min at 37 °C in the dark. Viable, apoptotic, or necrotic cells were distinguished using this method based on differential uptake of fluorescent DNA-binding dyes (AO/EB) with the structural aspect of chromatin condensation in the stained nucleus. Cells were analyzed using a fluorescence microscope (Olympus BX60 F5 Olympus Optical Co., Ltd., Nagano, Japan) at 360 nm. The results were obtained from three independent experiments.

Assay [6] relates to PC-3 cells. The assay is described as above. The assay is classed as cell-based, human. The following applies: PC-3, 48 h incubation, 2xIC50 concentration, AO/EB, ± SD; control 1.5 ± 0.7%. The protocol:
as §5

The test system of assay [7] is BxPC-3 cells. Kind of assay: Annexin V-FITC/propidium iodide flow cytometry, apoptosis. The assay is classed as cell-based, human. Conditions: IC50 concentration, Annexin V-FITC, ± SD. The protocol: Data are presented as mean percentage of apoptotic cells (early and late apoptotic) ± SD values. The differences between the experimental samples and vehicle control were evaluated by the ANOVA test followed by Tukey’s test (p < 0.05). Experiments were performed in triplicate. For flow cytometry analysis with Annexin V-FITC staining, the approximate number of analyzed cells was (N = 1 × 10^4), contrasting with the dual acridine orange/ethidium bromide (AO/EB) fluorescent staining (N = 200).
The Annexin V-FITC Apoptosis Detection Kit was used to estimate the apoptosis induction following 24 and 48 h incubation with the tested MM-compounds. During apoptosis, phosphatidylserine is transformed from the inner cell membrane to the cell surface, which can be detected by the annexin-FITC complex. The addition of propidium iodide to the reaction mixture allows the assessment of cell membrane integrity. Using flow cytometry analysis, four subpopulations of cells can be distinguished: alive (non-stained), necrotic (propidium iodide stained), early apoptotic (annexin V stained cells), or late-apoptotic cells (propidium iodide and annexin V stained). BxPC-3 and PC-3 cells were seeded at appropriate density on a 6-well plate (Table 9).
The experimental design included vehicle control (final solvent concentration was < 0.5% v/v DMSO), and cells treated with 2 µM SN-38 (active metabolite of irinotecan) used as a positive compensation control. Cells were left for incubation for another 24 or 48 h (37 °C; 5% CO2). After exposure, cells were trypsinized and transferred to cytometric tubes, left for 40 min, and centrifuged at 1400 rpm for 10 min at 4 °C. Afterward, the supernatant was removed, and the precipitate was diluted in 1 mL of PBS. The rest of the procedure was performed according to the manufacturer’s instructions. The results were obtained from three independent experiments.
(In general: A flow cytometer gives signals particle by particle.)

As usually defined, the IC50 is the concentration that inhibits the measured activity by half. Turning to `Cc1nn(-c2ccc(S(=O)(=O)N3CCOCC3)cc2)c2nn3nnnc3nc12` [MM136], the IC50 was 130 ± 10 nM in the assay on PC-3 cells [1]; 480 ± 90 nM in the assay on WI-38 cells; 220 ± 80 nM in the assay on L929 cells; 250 ± 80 nM in the assay on BxPC-3 cells [2]; 250 ± 70 nM in the assay with HCT-116 cells. Moreover, the “mean percentage of control group fluorescence intensity (MMP)” value is listed as 82.83 ± 13.02% with BxPC-3 cells [3] (BxPC-3, 24 h incubation, 0.5IC50, ± SD); 57.67 ± 5.56% in the assay with BxPC-3 cells [3] (BxPC-3, 24 h incubation, 2xIC50, ± SD); 65.68 ± 4.58% with BxPC-3 cells [3] (BxPC-3, 24 h incubation, IC50, ± SD); 69.08 ± 4.40% in the assay on BxPC-3 cells [3] (BxPC-3, 48 h incubation, 0.5IC50, ± SD); 61.83 ± 0.46% in the assay with BxPC-3 cells [3] (BxPC-3, 48 h incubation, 2xIC50, ± SD); 62.37 ± 0.05% in the assay on BxPC-3 cells [3] (BxPC-3, 48 h incubation, IC50, ± SD). Also, the “mean percentage of control group fluorescence intensity (MMP)” value in the assay on PC-3 cells [4] (PC-3, 24 h incubation, 0.5IC50, ± SD) amounted to 96.3 ± 5.74%; in the assay on PC-3 cells [4] (PC-3, 24 h incubation, 2xIC50, ± SD) it was 86.9 ± 7.22%; with PC-3 cells [4] (PC-3, 24 h incubation, IC50, ± SD), 92.78 ± 0.9%; with PC-3 cells [4] (PC-3, 48 h incubation, 0.5IC50, ± SD) it was 81.34 ± 0.4%; in the assay on PC-3 cells [4] (PC-3, 48 h incubation, 2xIC50, ± SD), 47.38 ± 2.74%; with PC-3 cells [4] (PC-3, 48 h incubation, IC50, ± SD), 61.24 ± 3.62%. Moreover, in the assay with BxPC-3 cells [5], the “increase in apoptotic fraction” value is recorded as “did not induce a significant increase”. For the same compound, in the assay with PC-3 cells [6], the “mean % of apoptotic cells” value came out at 14.5 ± 0.7%. The “mean percentage of apoptotic cells (early and late apoptotic)” value in the assay on BxPC-3 cells [7] (BxPC-3, 24 h incubation, control 10.3 ± 2.09%) was found to be 41.7 ± 0.17%; with BxPC-3 cells [7] (BxPC-3, 48 h incubation, control 8.3 ± 1.13%), 56.33 ± 4.96%.
